According to article PMC9399588, “Effect of fluconazole on the pharmacokinetics of a single dose of fedratinib in healthy adults” (Cancer Chemotherapy and Pharmacology, 2022):
Values joined by “and” are separate entries in the source; they are usually repeats but may differ in a detail not shown here. Identical values can stand only once. Like-named read-outs stand apart in the source and are kept apart here.

Experiments:
myelofibrosis = system: myelofibrosis; parameters: method as in PMID 34331348; conditions: double-blind Phase 3, NCT01437787; cited from earlier work
CYP3A4 = system: CYP3A4; parameters: method as in PMID 32886148; conditions: 0.1 μM fedratinib, different hepatocyte preparations; cited from earlier work
[1] = Phase 1 fixed-sequence drug-drug interaction study: plasma pharmacokinetics of single-dose fedratinib with and without fluconazole; format: in vivo, human; conditions: for Vd/F: read-out: Vz/F, geometric mean (geometric CV%); for half-life: read-out: t1/2 (terminal elimination), geometric mean (geometric CV%) (converted)
From the text: This was an open-label Phase 1 study to evaluate the effect of multiple doses of fluconazole on the PK, safety, and tolerability of a single dose of fedratinib in healthy adult participants (NCT04702464). Healthy men and women aged 18–65 years with body mass index (BMI) ≥ 18 and ≤ 33 kg/m^2 at screening were enrolled at one site in the USA. Participants were confirmed to be healthy based on medical history, physical examination, clinical laboratory test results, vital signs, and 12-lead electrocardiogram (ECG) at screening and check-in (day − 1). Aspartate aminotransferase, alanine aminotransferase, and total bilirubin must have been at or below the upper limit of the reference range on or before check-in (day − 1). Other clinical parameters and laboratory results were either within normal range or deemed not clinically significant by the investigator. Women of childbearing potential were required to have a negative pregnancy test result and to use birth control.
This was a non-randomized, fixed-sequence, open-label study consisting of a screening phase, treatment phase (including baseline), and follow-up telephone call (Fig. 1). The fixed-sequence crossover design of this study was selected to remove intersubject variability from comparison between treatments. Healthy participants were chosen to mitigate the potential confounding effects of disease state or other concomitant medications likely to be present in a population of patients with myelofibrosis.
Participants resided at the clinical site from day − 1 to day 27. A single oral dose of fedratinib 100 mg was administered under fasted conditions on day 1. Participants received fluconazole 400 mg on day 10 and fluconazole 200 mg once daily on days 11–23. On day 18, participants received a single oral dose of fedratinib 100 mg, under fasted conditions, with fluconazole 200 mg. No food or beverages (except water) were allowed for at least 4 h after dosing; water was allowed as desired except for 1 h before and 1 h after each dose. Participants received ondansetron 8 mg by mouth approximately 1 h before each fedratinib administration to reduce the potential for fedratinib-related nausea and vomiting, with the option of a subsequent oral dose(s) of ondansetron as necessary. Fluconazole is not expected to have a clinically meaningful impact on the PK of ondansetron as ondansetron is metabolized by multiple enzymes including CYP1A1/2, CYP3A4, and CYP2D6 [28]. […] Participants were discharged from the clinical site on day 27 and received a follow-up telephone call 4 days (± 2 days) after discharge. In the event that participants discontinued the study for any reason, an early termination (ET) visit was performed. Only safety assessments scheduled for the day of discharge were performed at the ET visit. Participants who discontinued the study also received a follow-up telephone call 4 days (± 2 days) after discharge. Participants who discontinued the study due to inclement weather returned to the clinic to complete the ET visit at a later date.
On days 1 and 18, blood samples for determination of fedratinib plasma concentrations were collected before each dose and 0.5, 1, 1.5, 2, 3, 4, 6, 8, 12, 24, 48, 72, 120, 168, and 216 h post-dose. Plasma fedratinib concentrations were measured using a validated liquid chromatography–tandem mass spectrometry assay with a lower limit of quantification (LLOQ) of 1.00 ng/mL [19].
Plasma PK parameters were calculated using noncompartmental methods. The PK parameters determined for fedratinib were maximum observed plasma concentration (Cmax), time to Cmax (Tmax), AUC from time 0 to the time of the last quantifiable concentration (AUC0–t), AUC from time 0 to infinity (AUC0–∞), terminal elimination t1/2, apparent total plasma clearance (CL/F), and apparent total volume of distribution during the terminal phase (Vz/F). […]

[2] = Safety and tolerability assessment (adverse event monitoring) in the Phase 1 study; format: in vivo, human
Procedure: Safety assessments included adverse event (AE) monitoring, review of concomitant medications and procedures, physical examinations, vital signs measurements, 12-lead ECGs, and clinical laboratory safety tests. All AEs were recorded from the time of informed consent until study completion, and up to 30 days after the last dose of fluconazole if reported to the investigator.

[3] = parameters: method as in PMID 32748109; conditions: healthy adult men, oral dose of [14C]-fedratinib 200 mg; cited from earlier work
CYP3A4 (liver) = system: CYP3A4 (liver); parameters: method as in PMID 32886148; conditions: after first dose of 400 mg once-daily fedratinib, healthy participants; cited from earlier work
[4] = in vivo; cited from earlier work
[5] = parameters: method as in PMID 32248324; conditions: cited from earlier work
CYP2C19 (liver) = system: CYP2C19 (liver); parameters: method as in PMID 32886148; conditions: after first dose of 400 mg once-daily fedratinib, healthy participants; cited from earlier work
[6] = cited from earlier work
[7] = parameters: method as in PMID 34019108; conditions: healthy adults; cited from earlier work
[8] = parameters: method as in PMID 32886148; conditions: PBPK simulations; cited from earlier work
[9] = parameters: method as in PMID 12867217; conditions: cited from earlier work
[10] = parameters: method as in PMID 31324935; conditions: cited from earlier work
[11] = compared with fedratinib alone, single oral dose 100 mg
[12] = fedratinib 100 mg + fluconazole 200 mg once daily (test) vs fedratinib 100 mg (reference)
[13] = healthy men, single dose fedratinib 300 mg with ketoconazole vs alone

Cc1cnc(Nc2ccc(OCCN3CCCC3)cc2)nc1Nc1cccc(S(=O)(=O)NC(C)(C)C)c1 [fedratinib]
Proportion of patients reaching primary (≥ 35% reduction in spleen volume) and secondary (≥ 50% reduction in symptom score) endpoints vs placebo (myelofibrosis): greater proportion | CYP3A4 share of the total CYP contribution to metabolism (CYP3A4): 0–67% | Tmax median difference between fedratinib with fluconazole and fedratinib alone ([1]; Hodges–Lehmann estimate, 90% CI 0.00–1.00, p = 0.156): 0.5 h | AUC(0-inf) ([1]; both sexes, human, plasma, oral, 100 mg fedratinib + 200 mg fluconazole once daily (test), n = 5, read-out: AUC0–∞, geometric mean from ANOVA model): 4100 ng·h/mL | AUC(0-inf) ([1]; both sexes, human, plasma, oral, 100 mg, 100 mg fedratinib (reference), n = 7, read-out: AUC0–∞, geometric mean from ANOVA model): 2410 ng·h/mL | AUC(0-t) ([1]; both sexes, human, plasma, oral, 100 mg fedratinib (reference), n = 16, read-out: AUC0–t, geometric mean from ANOVA model): 1900 ng·h/mL | Cmax ([1]; both sexes, human, plasma, oral, 100 mg fedratinib (reference), n = 16, read-out: Cmax, geometric mean from ANOVA model): 121 ng/mL | Cmax ([1]; both sexes, human, plasma, oral, 100 mg fedratinib + 200 mg fluconazole once daily (test), n = 16, read-out: Cmax, geometric mean from ANOVA model): 146 ng/mL | AUC(0-inf) ([1]; both sexes, human, plasma, oral, fedratinib 100 mg + fluconazole 200 mg once daily, n = 5, read-out: AUC0–∞, geometric mean (geometric CV%)): 4200 ng·h/mL | Vd/F ([1]; both sexes, human, plasma, oral, fedratinib 100 mg + fluconazole 200 mg once daily, n = 5): 3560 L | AUC(0-t) ([1]; both sexes, human, plasma, oral, fedratinib 100 mg + fluconazole 200 mg once daily, n = 16, read-out: AUC0–t, geometric mean (geometric CV%)): 2970 ng·h/mL | half-life ([1]; both sexes, human, plasma, oral, fedratinib 100 mg + fluconazole 200 mg once daily, n = 16): 138 h | AUC(0-inf) ([1]; both sexes, human, plasma, po, 100 mg, fedratinib 100 mg single oral dose alone, n = 7, read-out: AUC0–∞, geometric mean (geometric CV%)): 2360 ng·h/mL | Cmax ([1]; both sexes, human, plasma, fedratinib 100 mg single oral dose + fluconazole 200 mg once daily, healthy adults, n = 16, read-out: Cmax, geometric mean (geometric CV%)): 146 ng/mL | Cmax ([1]; both sexes, human, plasma, fedratinib 100 mg single oral dose alone, fasted, healthy adults, n = 16, read-out: Cmax, geometric mean (geometric CV%)): 121 ng/mL | Vd/F ([1]; both sexes, human, plasma, fedratinib 100 mg single oral dose alone, n = 7): 6500 L | AUC(0-t) ([1]; both sexes, human, plasma, fedratinib 100 mg single oral dose alone, n = 16, read-out: AUC0–t, geometric mean (geometric CV%)): 1900 ng·h/mL | Tmax ([1]; both sexes, human, plasma, fedratinib 100 mg single oral dose alone, n = 16, read-out: Tmax, median (min, max)): 2 h | half-life ([1]; both sexes, human, plasma, fedratinib 100 mg single oral dose alone, n = 16): 125 h | Increase in fedratinib AUC0–t on coadministration with fluconazole [1, 11]: 56% | Increase in fedratinib Cmax on coadministration with fluconazole [1, 11]: 21% | AUC0–t: ratio (%) of geometric LS means, test/reference (90% CI) [1, 12]: 156% and 156 (145, 168) % | Cmax: ratio (%) of geometric LS means, test/reference (90% CI) [1, 12]: 121% and 121 (108, 135) % | AUC0–∞: ratio (%) of geometric LS means, test/reference (90% CI) ([1]; fedratinib 100 mg + fluconazole 200 mg once daily (test, n = 5) vs fedratinib 100 mg (reference, n = 7)): 170 (143, 202) % | CL/F, geometric mean (geometric CV%) ([1]; fedratinib 100 mg + fluconazole 200 mg once daily, n = 5): 23.8 (40.2) L/h | Tmax, median (min, max) ([1]; fedratinib 100 mg + fluconazole 200 mg once daily, n = 16): 2.00 (1.02, 6.00) h | CL/F, geometric mean (geometric CV%) ([1]; fedratinib 100 mg single oral dose alone, n = 7): 42.3 (21.9) L/h | Difference in terminal t1/2 of fedratinib alone vs in combination with fluconazole ([1]; in vivo): no significant difference | Increase in fedratinib exposure by fluconazole (in words) ([1]; observed in this study): less than twofold increase | Increase in systemic exposure to fedratinib on coadministration with fluconazole ([1]; single oral dose, compared with fedratinib alone): up to 56% | Participants with treatment-emergent adverse events (TEAEs) ([2]; during treatment with fedratinib 100 mg alone, 3 participants): 10.3% | Participants with treatment-emergent adverse events (TEAEs) ([2]; during treatment with fedratinib 100 mg plus fluconazole 200 mg, 1 participant): 6.3% | Tolerability of single oral doses ([2]; fedratinib 100 mg with or without fluconazole, healthy adults): well tolerated | Share of total circulating drug in plasma accounted for by fedratinib [3]: approximately 80% | Mean fraction of metabolism or excretion in relation to systemic clearance (CYP3A4 (liver)): 64% | Tolerability of single doses [4]: generally well tolerated | Effect of ketoconazole coadministration on fedratinib Tmax [5]: no effect on Tmax | Increase in fedratinib AUC0–t by ketoconazole [5, 13]: 3.20 fold | Increase in fedratinib Cmax by ketoconazole [5, 13]: 1.93 fold | Mean fraction of metabolism or excretion in relation to systemic clearance (CYP2C19 (liver)): 16% | Effective t1/2 [6]: around 40 h | Terminal elimination half-life (t1/2) [6]: around 114 h | Effective t1/2 ([6]; healthy participants and patients with myelofibrosis): ~ 40 h | Effect of CYP3A4 inducers rifampin and efavirenz on fedratinib exposure [7]: decrease fedratinib exposure | Predicted increase in fedratinib exposure on coadministration of fluconazole (dual CYP2C19 and CYP3A4 inhibitor) vs fedratinib alone [8]: up to a fourfold increase

OC(Cn1cncn1)(Cn1cncn1)c1ccc(F)cc1F [fluconazole]
Participants with treatment-emergent adverse events (TEAEs) ([2]; during treatment with fluconazole 200 mg alone, 2 participants): 7.4%

Cc1nccn1CC1CCc2c(c3ccccc3n2C)C1=O (stereo not drawn) [ondansetron]
Change in AUC on coadministration with the moderate CYP3A inhibitor aprepitant [9]: no clinically significant change

N#CC[C@H](C1CCCC1)n1cc(-c2ncnc3[nH]ccc23)cn1 [ruxolitinib]
Increase in exposure on coadministration with fluconazole [10]: 234%
